Measurements taken from US20100022483A1, “Substituted Tetracycline Compounds” (Paratek Pharmaceuticals, Inc., priority 2008, published 2010).
Values after ≈ are worked out from the molar mass of the structure shown. Read-outs that look alike come from different tables or passages of the source.

Legend:
[1] = tested on: gram negative bacteria; test: In vitro anti-bacterial activity assay (broth dilution MIC), gram negative bacteria; format: cell-based, E. coli
Procedure, shortened: (§1)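 Broth dilution MIC following CLSI M7-A2: compounds serially diluted, log-phase test strains added to final ~5×10^5 CFU/ml, incubated ~18 hours at 35° C in ambient air. Plates read on microplate reader or visually; MIC is lowest concentration inhibiting growth.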

[2] = tested on: 3T3 fibroblast cells; test: In vitro phototoxicity assay (neutral red; UV light-treated vs dark control plates); format: cell-based; conditions: for Photo Toxicity UV Tox50: UV light 50 minutes; for Photo Toxicity Dark Tox50: dark control plate
Procedure, shortened: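 Neutral red viability readout (A535 after EtOH/acetic acid extraction) compares paired plates: one exposed 50 min to UV at 1.6–1.8 mW/cm^2, one held in darkness, both dosed with compound in HBSS and recovered overnight. 3T3 fibroblast cells used; phototoxicity taken as the difference.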

[3] = tested on: gram positive bacteria; test: In vitro anti-bacterial activity assay (broth dilution MIC), gram positive bacteria; format: cell-based, S. aureus; conditions: 18 h
Procedure, shortened: as §1

[4] = in vitro; format: cell-based; conditions: Chinese hamster, Cytotox. CHO-K1
[5] = Mammalian cytotoxicity assay (resazurin), COS-1 cells; format: cell-based; conditions: African green monkey, read-out: Cytotox. COS-1
Procedure, shortened: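 Cells seeded overnight at 37° C., 5% CO2, then exposed to serial compound dilutions for 24 hours. Medium replaced with resazurin (0.042 mg/ml in PBS with Ca and Mg) for 2 hours plus 30 minutes dark at room temperature; fluorescence read at ex 535/em 590 nm, IC50 taken as 50% growth inhibition.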

[6] = Escherichia coli, 18 h, E. coli D1 209, read-out: Median MIC's G− E. coli D1 209
[7] = Escherichia coli, 18 h, E. coli MG 1655, read-out: Median MIC's G− E. coli MG 1655
[8] = Escherichia coli, ATCC25922, 18 h, E. coli ATCC 25922, read-out: Median MIC's G− E. coli ATCC 25922
[9] = Pseudomonas aeruginosa, 18 h, P. aeruginosa K201 PAO6609, read-out: Median MIC's G− P. aeruginosa K201 PAO6609
[10] = Staphylococcus aureus, S. aureus MRSA5, read-out: Median MIC's G+ S. aureus MRSA5
[11] = Staphylococcus aureus, S. aureus RN450, read-out: Median MIC's G+ S. aureus RN450
[12] = Streptococcus pneumoniae, S. pneumoniae 157E-Strep, read-out: Median MIC's G+ S. pneumoniae 157E-Strep

| Compound | MIC [1, 6] | MIC [1, 7] | MIC [1, 8] | MIC [1, 9] | Photo Toxicity UV Tox50 [2] | Photo Toxicity Dark Tox50 [2] | MIC [3, 10] | MIC [3, 11] | MIC [3, 12] | IC50 at 24 h [4] | IC50 at 24 h [5] | MIC ([1]; Escherichia coli, 18 h, read-out: Median MIC's G− E. coli D1 209, E. coli D1 209) | MIC ([1]; Escherichia coli, 18 h, read-out: Median MIC's G− E. coli MG 1655, E. coli MG 1655) | MIC ([1]; Escherichia coli, ATCC25922, 18 h, read-out: Median MIC's G− E. coli ATCC 25922, E. coli ATCC 25922) | MIC ([1]; Pseudomonas aeruginosa, 18 h, read-out: Median MIC's G− P. aeruginosa K201 PAO6609, P. aeruginosa K201 PAO6609) |
| --- | --- | --- | --- | --- | --- | --- | --- | --- | --- | --- | --- | --- | --- | --- | --- |
| CN1CCN(CC(=O)c2ccc(O)c3c2C[C@H]2C[C@H]4[C@H](N(C)C)C(O)=C(C(N)=O)C(=O)[C@@]4(O)C(O)=C2C3=O)CC1 [BB] | 64 µg/mL (≈ 115 µM) | 8 µg/mL (≈ 14.4 µM) | 32 µg/mL (≈ 57.7 µM) | 64 µg/mL (≈ 115 µM) | >135.54 µM | >135.54 µM | 16 µg/mL (≈ 28.8 µM) | 2 µg/mL (≈ 3.61 µM) | 1 µg/mL (≈ 1.8 µM) | > 136 µM | > 136 µM | – | – | – | – |
| CN(C)[C@@H]1C(O)=C(C(N)=O)C(=O)[C@@]2(O)C(O)=C3C(=O)c4c(O)ccc(C(=O)CNCc5ccccn5)c4C[C@H]3C[C@@H]12 [BY] | 64 µg/mL (≈ 114 µM) | 64 µg/mL (≈ 114 µM) | 64 µg/mL (≈ 114 µM) | 64 µg/mL (≈ 114 µM) | >133.75 µM | >133.75 µM | 32 µg/mL (≈ 56.9 µM) | 2 µg/mL (≈ 3.56 µM) | 4 µg/mL (≈ 7.11 µM) | > 13.4 µM | > 13.4 µM | – | – | – | – |
| CN(C)[C@@H]1C(O)=C(C(N)=O)C(=O)[C@@]2(O)C(O)=C3C(=O)c4c(O)ccc(-c5cccc(CCCN)c5)c4C[C@H]3C[C@@H]12 [DG] | 32 µg/mL (≈ 58.4 µM) | 32 µg/mL (≈ 58.4 µM) | 32 µg/mL (≈ 58.4 µM) | 64 µg/mL (≈ 117 µM) | 64.8 µM | >200 µM | 64 µg/mL (≈ 117 µM) | 0.5 µg/mL (≈ 0.913 µM) | 0.125 µg/mL (≈ 0.228 µM) | > 20 µM | > 20 µM | – | – | – | – |
| COCC(=O)c1ccc(O)c2c1C[C@H]1C[C@H]3[C@H](N(C)C)C(O)=C(C(N)=O)C(=O)[C@@]3(O)C(O)=C1C2=O [BW] | 64 µg/mL (≈ 132 µM) | 0.5 µg/mL (≈ 1.03 µM) | 0.5 µg/mL (≈ 1.03 µM) | 32 µg/mL (≈ 65.8 µM) | >172.1 µM | >172.1 µM | 1 µg/mL (≈ 2.06 µM) | 0.06 µg/mL (≈ 0.123 µM) | 0.06 µg/mL (≈ 0.123 µM) | > 53.4 µM | > 53.4 µM | – | – | – | – |
| CN(C)CC/C(=N\OC(C)(C)C)c1ccc(O)c2c1C[C@H]1C[C@H]3[C@H](N(C)C)C(O)=C(C(N)=O)C(=O)[C@@]3(O)C(O)=C1C2=O [CJ] | 1 µg/mL (≈ 1.71 µM) | 2 µg/mL (≈ 3.42 µM) | 0.5 µg/mL (≈ 0.855 µM) | 64 µg/mL (≈ 109 µM) | 62.89 µM | >136.86 µM | 2 µg/mL (≈ 3.42 µM) | 0.06 µg/mL (≈ 0.103 µM) | 0.06 µg/mL (≈ 0.103 µM) | 34.6 µM | 82.2 µM | – | – | – | – |
| CN(C)[C@@H]1C(O)=C(C(N)=O)C(=O)[C@@]2(O)C(O)=C3C(=O)c4c(O)ccc(C(=O)Cn5ccnc5)c4C[C@H]3C[C@@H]12 [CF] | 64 µg/mL (≈ 122 µM) | 64 µg/mL (≈ 122 µM) | 64 µg/mL (≈ 122 µM) | 64 µg/mL (≈ 122 µM) | >161.01 µM | >161.01 µM | 64 µg/mL (≈ 122 µM) | 4 µg/mL (≈ 7.66 µM) | 4 µg/mL (≈ 7.66 µM) | > 49.9 µM | > 49.9 µM | – | – | – | – |
| CN(C)CCCCNCc1cccc(-c2ccc(O)c3c2C[C@H]2C[C@H]4[C@H](N(C)C)C(O)=C(C(N)=O)C(=O)[C@@]4(O)C(O)=C2C3=O)c1 [CV] | 64 µg/mL (≈ 103 µM) | 64 µg/mL (≈ 103 µM) | 64 µg/mL (≈ 103 µM) | 64 µg/mL (≈ 103 µM) | >134.59 µM | >134.59 µM | 32 µg/mL (≈ 51.7 µM) | 2 µg/mL (≈ 3.23 µM) | 4 µg/mL (≈ 6.46 µM) | > 135 µM | > 135 µM | – | – | – | – |
| CN(C)CCCNC(=O)c1cccc(-c2ccc(O)c3c2C[C@H]2C[C@H]4[C@@H](N(C)C)C(O)=C(C(N)=O)C(=O)[C@@]4(O)C(O)=C2C3=O)c1 [P] | 64 µg/mL (≈ 103 µM) | 64 µg/mL (≈ 103 µM) | 64 µg/mL (≈ 103 µM) | 64 µg/mL (≈ 103 µM) | >122.9 µM | >122.9 µM | 64 µg/mL (≈ 103 µM) | 4 µg/mL (≈ 6.47 µM) | 8 µg/mL (≈ 12.9 µM) | > 123 µM | > 123 µM | – | – | – | – |
| CCOC(=O)CCNC(=O)c1cccc(-c2ccc(O)c3c2C[C@H]2C[C@H]4[C@H](N(C)C)C(O)=C(C(N)=O)C(=O)[C@@]4(O)C(O)=C2C3=O)c1 [I, 3-[3-((6aS,10S,10aS,11aR)-8-Carbamoyl-10-dimethylamino-4,6,6a,9-tetrahydroxy-5,7-dioxo-5,6a,7,10,10a,11,11a,12-octahydro-naphthacen-1-yl)-benzoylamino]-propionic acid ethyl ester] | – | – | – | – | >141.76 µM | >141.76 µM | 2 µg/mL (≈ 3.16 µM) | 0.06 µg/mL (≈ 0.0947 µM) | 3 µg/mL (≈ 4.73 µM) | > 14.2 µM | > 14.2 µM | 64 µg/mL (≈ 101 µM) | 64 µg/mL (≈ 101 µM) | 64 µg/mL (≈ 101 µM) | 64 µg/mL (≈ 101 µM) |
| CN(C)[C@@H]1C(O)=C(C(N)=O)C(=O)[C@@]2(O)C(O)=C3C(=O)c4c(O)ccc(C(=O)CNc5cccnc5)c4C[C@H]3C[C@@H]12 [CB] | 64 µg/mL (≈ 117 µM) | 64 µg/mL (≈ 117 µM) | 64 µg/mL (≈ 117 µM) | 64 µg/mL (≈ 117 µM) | >152.86 µM | >152.86 µM | 64 µg/mL (≈ 117 µM) | 16 µg/mL (≈ 29.2 µM) | 32 µg/mL (≈ 58.3 µM) | 110 µM | > 153 µM | – | – | – | – |
| CN(C)c1cc(-c2cccc(C(N)=O)c2)c(O)c2c1C[C@H]1C[C@H]3[C@H](N(C)C)C(O)=C(C(N)=O)C(=O)[C@@]3(O)C(O)=C1C2=O [CD] | 64 µg/mL (≈ 111 µM) | 64 µg/mL (≈ 111 µM) | 64 µg/mL (≈ 111 µM) | 64 µg/mL (≈ 111 µM) | >146.26 µM | >146.26 µM | 32 µg/mL (≈ 55.5 µM) | 8 µg/mL (≈ 13.9 µM) | 16 µg/mL (≈ 27.7 µM) | > 45.3 µM | > 45.3 µM | – | – | – | – |
| CN(C)CCCCNCc1ccc(O)c2c1C[C@H]1C[C@H]3[C@H](N(C)C)C(O)=C(C(N)=O)C(=O)[C@@]3(O)C(O)=C1C2=O [CN, (4S,4aS,5aR,12aS)-4-Dimethylamino-7-[(4-dimethylamino-butylamino)-methyl]-3,10,12,12a-tetrahydroxy-1,11-dioxo-1,4,4a,5,5a,6,11,12a-octahydro-naphthacene-2-carboxylic acid amide] | 64 µg/mL (≈ 118 µM) | 32 µg/mL (≈ 59 µM) | 32 µg/mL (≈ 59 µM) | 64 µg/mL (≈ 118 µM) | >138.03 µM | >138.03 µM | 64 µg/mL (≈ 118 µM) | 16 µg/mL (≈ 29.5 µM) | 32 µg/mL (≈ 59 µM) | > 138 µM | > 138 µM | – | – | – | – |
